According to publication PMC11157767 (Molecular Cancer, 2024):
Like-named read-outs stand apart in the source and are kept apart here.

Columns and labels:
in vitro [1] = details: mouse, brain homogenate
[2] = In vitro protein binding assay, culture media; assay type: in vitro ADME; details: read-out: unbound drug fraction, Culture Media, AVG
TRIM24-MET-r cells = experiment: 3-day dose-response assay, TRIM24-MET-r cells; assay type: cell-based; details: Homo sapiens
TRIM24-MET-i PDOX = details: vs vehicle
Method: All treatments started 18 days after transplantation. Radiotherapy was administered at 0.5 Gy per day, delivering 10 Gy total.
Each line represents one mouse. The ends of lines indicate the onset of neurological symptoms and thereby the endpoints. Treatment started on day 13.

TRIM24-MET-i cells = experiment: 3-day dose-response assay, TRIM24-MET-i cells; assay type: cell-based; details: Homo sapiens
in vitro [3] = details: mouse, plasma

Structure (SMILES): COc1cc2nccc(Oc3ccc(NC(=O)C4(C(=O)Nc5ccc(F)cc5)CC4)cc3)c2cc1OC [Cabozantinib]
- fraction unbound (in vitro [1]): 0.0025
- fraction unbound [2]: 0.033
- EC50 (TRIM24-MET-r cells; 72 h, read-out: EC50 Total): 369 nM
- EC90 (TRIM24-MET-r cells; 72 h, read-out: EC90 Total): 44900 nM
- EC50 (TRIM24-MET-r cells; read-out: EC50 Unbound): 12.2 nM
- EC90 (TRIM24-MET-r cells; read-out: EC90 Unbound): 1480 nM
- increase of median survival (TRIM24-MET-i PDOX): 15.5 days
- EC50 (TRIM24-MET-i cells; 72 h, read-out: EC50 Total): 30.3 nM
- EC90 (TRIM24-MET-i cells; 72 h, read-out: EC90 Total): 556 nM
- EC50 (TRIM24-MET-i cells; read-out: EC50 Unbound): 1 nM
- EC90 (TRIM24-MET-i cells; read-out: EC90 Unbound): 18.3 nM
- fraction unbound (in vitro [3]): 0.0017
